In PubChem BioAssay (NCI) one finds TGI data, which are given here for 20 molecules.

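Each compound was tested at five concentrations against cells in 96-well plates for 48 hours. Definition used: TGI = concentration required for complete inhibition of growth.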

Common to all, as to experiment: growth of human tumour cells (NCI), 48 h
Assay [1] deals with A498 renal.
Assay [2] deals with ACHN renal.
Assay [3] has as its system EKVX NSCLC.
For assay [4], the system named is HCT-116 colon.
In assay [5] the test system is IGROV1 ovarian.
Assay [6] relates to KM12 colon.
The subject of assay [7] is LOX IMVI melanoma.
Assay [8] deals with M14 melanoma.
Assay [9] deals with MALME-3M melanoma.
For assay [10], the system named is MDA-MB-435.
In assay [11] the test system is OVCAR-5 ovarian.
Assay [12] has as its system T-47D breast.
For assay [13], the system named is RPMI-8226 leukemia.
Assay [14] deals with SF-539 CNS.

As to `N=C(N)c1ccc(/C=C/c2ccc(C(=N)N)cc2)cc1`, the TGI in assay [1] is 73.7 µM; in assay [2], greater than 100 µM; in [3], greater than 100 µM; in assay [4], greater than 100 µM; in [5], greater than 100 µM; in [6] it was greater than 100 µM. The TGI in assay [7], in [8], in [9], in [10], in assay [11] and in assay [12] was greater than 100 µM in each case.

For `O=C(OCc1ccccc1)N(CCCCN(CCCNC(=O)C(F)(F)F)C(=O)OCc1ccccc1)CCCNC(=O)C(F)(F)F`, the TGI in assay [1], in [2], in [3], in assay [4], in assay [5] and in assay [6] was greater than 100 µM in each case. The TGI in assay [7], in [8], in assay [10], in assay [11], in assay [13] and in [14] was greater than 100 µM in each case. This molecule had a TGI in [12] greater than 100 µM.

Turning to `Nc1ccccc1-c1noc(=O)[nH]1`, the TGI in assay [1], in assay [2], in [3], in assay [4], in [5] and in assay [6] was greater than 100 µM in each case. Besides, the TGI in [7], in assay [8], in [10], in assay [11], in [13] and in assay [14] was greater than 100 µM in each case. Further, the TGI in [12] is greater than 100 µM.

In the case of `CC1=NN(c2nc(N)nc(/C(C#N)=C/c3ccccc3O)n2)C(C)(C)C1`, the TGI in [1] is 62.9 µM; in assay [2], 34.5 µM; in assay [3], 37.5 µM; in assay [4] it was 32.2 µM; in assay [5], 45.5 µM; in assay [6], 31.4 µM. For the same molecule, the TGI was determined as 36.4 µM in assay [8]; 33.8 µM in assay [9]; 32.9 µM in assay [10]; 30.4 µM in [11]; 36.2 µM in [13]; 30.6 µM in assay [14]. Also, the TGI in assay [12] was 31.9 µM.

For `Cc1ccc2c(c1)[nH]c(=S)n2C=C(C(N)=O)C(N)=O`, the TGI in assay [1], in assay [2], in assay [3], in assay [4], in assay [5] and in assay [6] was greater than 100 µM in each case. Further, the TGI in assay [7], in assay [8], in assay [10], in [11], in assay [14] and in assay [12] was greater than 100 µM in each case.

As for `CC1OC(OC2C(OC(=O)[C@]34CCC(C)(C)C[C@H]3C3=CC[C@@H]5[C@@]6(C)CC[C@H](OC7OC(C(=O)O)C(O)C(O)C7O)C(C)(C)[C@@H]6CC[C@@]5(C)[C@]3(C)C[C@H]4O)OCC(O)C2O)C(O)C(O)C1OC1OCC(OC2OCC(O)C(O)C2O)C(O)C1O` (some centres not stated), the TGI turned out to be 3.06 µM in assay [1]; 15.8 µM in assay [2]; 15.2 µM in assay [3]; 16.6 µM in [4]; 26.5 µM in assay [5]; 14 µM in [6]. Moreover, the TGI in assay [7] stood at 24.2 µM; in [8] it was 11.5 µM; in assay [9] it was 25.3 µM; in assay [10], 17.8 µM; in [11] it was 20.1 µM; in [13] it was 51.5 µM. Moreover, the TGI in [12] came to 26.3 µM.

On to `CC(C)=C1C(=O)C[C@]2(C)C[C@H]3O[C@]3(C)CC[C@@H]3O[C@@]3(C)CC[C@@H]12`, for which the TGI in assay [1], in assay [2], in [3], in assay [4], in assay [5] and in assay [6] was greater than 50 µM throughout. Moreover, the TGI in assay [7], in assay [8], in assay [10], in assay [11], in assay [13] and in assay [14] was greater than 50 µM in each case. In assay [12], the TGI was greater than 50 µM.

Turning to `COc1cccc(-c2nc3ccccc3c(=O)[nH]2)c1`, the TGI in assay [1] came to 51.6 µM; in assay [2] it was 37.4 µM; in assay [3], 87.7 µM; in [4] it was 60.1 µM; in assay [5], 58.8 µM; in [6] it was 86.9 µM. In addition, the TGI was greater than 100 µM in assay [7]; greater than 100 µM in assay [8]; 52.5 µM in assay [9]; 28.1 µM in assay [10]; greater than 100 µM in assay [11]; 50.3 µM in assay [14]. In assay [12], this molecule gave a TGI of 50.5 µM.

Regarding `CN1Cc2ccccc2S(=O)(=O)n2cccc2C1=O`, the TGI in assay [1], in assay [2], in assay [3], in assay [4], in assay [5] and in [6] was greater than 100 µM each time. Moreover, the TGI in [7], in assay [10], in assay [11], in [13], in [14] and in [12] was greater than 100 µM each time.

In the case of `C=C1C[C@@H]2CC[C@@]34CC5O[C@H]6C(O[C@H]7CC[C@H](CC(=O)O[C@@H]8[C@@H](C)[C@@H]9O[C@@H]%10C[C@]%11(C[C@@H]%12O[C@]%13(C[C@H](C)[C@@H]%14O[C@@H]%15CC(C(O)CO)O[C@@H]%15C[C@@H]%14O%13)C[C@H](C)[C@@H]%12O%11)O[C@@H]%10C[C@@H]9O[C@H]8CC8O[C@@H](CC[C@@H]1O2)C[C@@H](C)C8(O)CO)O[C@@H]7[C@@H]6O3)[C@H]5O4` (some centres not stated), the TGI in [1], in [2], in [3], in assay [4], in assay [5] and in [6] was greater than 1 µM throughout. In addition, the TGI in [7], in [8], in assay [9], in assay [10], in assay [11] and in [13] was greater than 1 µM each time. For the same molecule, in [12], the TGI was greater than 1 µM.

`O=[N+]([O-])C(=C(Cl)Cl)C(Cl)=C(Cl)Cl`: the TGI in assay [1] amounted to 14.9 µM; in [2], 2.05 µM; in [3], 11.2 µM; in assay [4], 0.849 µM; in [5], 1.15 µM; in assay [6], 5.51 µM. Besides, the TGI amounted to 0.0351 µM in assay [7]; 0.0871 µM in assay [8]; 0.126 µM in assay [9]; 1.07 µM in assay [10]; 3.94 µM in assay [11]; 3.45 µM in assay [14]. Moreover, the TGI in assay [12] came to 0.289 µM.

Regarding `Cc1sc(Nc2ccc(Nc3nc(-c4ccccc4)c(C)s3)cc2)nc1-c1ccccc1`, the TGI in assay [1], in assay [2], in assay [3], in assay [4], in assay [5] and in assay [6] was greater than 100 µM in each case. The TGI is greater than 100 µM in assay [7]; greater than 100 µM in assay [8]; greater than 100 µM in [9]; greater than 100 µM in assay [10]; greater than 100 µM in [11]; 70.6 µM in assay [14]. This molecule gave a TGI in assay [12] greater than 100 µM.

With `C=CCC1(O)CC(n2cc(C)c(=O)[nH]c2=O)OC1CO[Si](C)(C)C(C)(C)C` (configuration not stated), the TGI in [1], in assay [2], in [3], in assay [4], in assay [5] and in assay [6] was greater than 100 µM in each case. Also, the TGI is 89.6 µM in [7]; greater than 100 µM in assay [8]; greater than 100 µM in assay [10]; greater than 100 µM in assay [11]; 97.7 µM in assay [13]; greater than 100 µM in assay [14]. This molecule also yielded a TGI in assay [12] greater than 100 µM.

Turning to `Cc1ccc(Cc2n[nH]c(=O)[nH]2)cc1`, the TGI in assay [1], in assay [2], in [3], in assay [4], in assay [5] and in assay [6] was greater than 100 µM each time. Also, the TGI in assay [7], in assay [8], in assay [9], in assay [10], in assay [11] and in assay [14] was greater than 100 µM in each case. This molecule also gave a TGI in assay [12] greater than 100 µM.

Take `COc1c2c(cc3c1C(=O)c1c(O)cccc1C3=O)CC(O)CC2` (configuration not stated): the TGI in [1], in [2], in assay [3], in assay [4], in [5] and in assay [6] was greater than 100 µM each time. Also, the TGI in [7], in assay [8], in [9], in [10], in assay [11] and in assay [14] was greater than 100 µM in each case. The molecule further gave a TGI in assay [12] of 93.6 µM.

Take `NC1c2c(Br)sc(N3CCCC3)c2C(=O)C1O` (configuration not stated): the TGI in assay [1], in assay [2], in [3], in assay [4], in [5] and in assay [6] was greater than 50 µM throughout. Moreover, the TGI in assay [7], in assay [8], in assay [9], in [10], in assay [11] and in assay [14] was greater than 50 µM each time. In assay [12], this molecule returned a TGI greater than 50 µM.

For `CC(=O)Nc1oc(C)c(C)c1S(=O)(=O)c1ccc(Cl)cc1`, the TGI in [1], in assay [2], in [3], in assay [4], in assay [5] and in assay [6] was greater than 100 µM in each case. Further, the TGI in assay [8], in assay [9], in assay [10], in assay [11], in assay [13] and in assay [14] was greater than 100 µM each time. The molecule also had a TGI in assay [12] greater than 100 µM.

For the molecule `Cc1ccc(N=N/C(=N/NC(=O)c2cc(Cl)ccc2O)c2ccc(N(CCC#N)CCC#N)cc2C)cc1`, the TGI was 49.5 µM in assay [1]; 70.4 µM in assay [2]; greater than 100 µM in assay [3]; 54.4 µM in [4]; greater than 100 µM in assay [5]; greater than 100 µM in assay [6]. The TGI is greater than 100 µM in assay [8]; 47.8 µM in assay [9]; greater than 100 µM in [10]; greater than 100 µM in assay [11]; greater than 100 µM in assay [13]; 46.4 µM in assay [14]. In assay [12], this molecule yielded a TGI of 56.2 µM.

`C=CC[C@H]1O[Si](C(C)(C)C)(C(C)(C)C)[C@H](C)[C@H]1C`: the TGI in assay [1], in assay [2], in assay [3], in assay [4], in [5] and in assay [6] was greater than 100 µM in each case. The TGI in [7], in assay [8], in assay [9], in assay [10], in assay [11] and in [14] was greater than 100 µM in each case. Besides, in assay [12], the TGI is greater than 100 µM.

As to `NC(=O)c1ccc(C(=O)Nc2ccc([As](=O)(O)O)cc2)cc1`, the TGI in assay [1], in [2], in assay [3], in assay [4], in assay [5] and in [6] was greater than 100 µM in each case. In addition, the TGI in assay [7], in assay [8], in assay [9], in [10], in assay [11] and in [13] was greater than 100 µM each time. In assay [12], this molecule came in with a TGI greater than 100 µM.
